In this data set the test system is back of a marmot. The experiment in a line: Continuous skin irritation test of retinol. Type of data set: in vivo. The conditions noted are these: polar oil blend ratio 8 mass %, 0.2 mass % retinol.

SMILES strings stand for the structures.

Protocol: “Continuous Skin Irritation Test”
0.05 ml of a sample solution containing a lipophilic drug was applied on a 2×2 cm area of the back of a marmot (first application).
24 hours later, the second application was done.
Again, 24 hours later, the third application was done.
Before the second application, before the third application, and 24 hours after the third application, skin reactions such as erythema and edema was observed by naked eye. Evaluation was conducted based on the following criteria, and the average of the three scores was used as the skin reaction score.
Evaluation Criteria of the Skin Reaction

With `CCCCCCCC(=O)OCC(COC(=O)CCCCCCC)(COC(=O)CCCCCCC)COC(=O)CCCCCCC` [pentaerythrityl tetraoctanoate], the “skin irritation suppression effect (retinol), FIG. 9” value was “superior skin irritation suppression effect”.

Values taken from US20070116654A1, “Cosmetics” (SHISEIDO CO., LTD., priority 2001, published 2007).
